Results on 1 substance are retold here after patent publication US20240218084A1, “METHOD FOR PURIFYING FOMES OFFICINALIS POLYSACCHARIDE BY SEQUENTIAL SIMULATED MOVING CHROMATOGRAPHY” (HEILONGJIANG BAYI AGRICULTURAL UNIVERSITY, priority 2022, published 2024).

In the assay the test system is Macrophage RAW264.7. Briefly: NO production by macrophage RAW264.7 stimulated with polysaccharide (Griess reagent). Format: cell-based. The settings on record: RAW264.7 cells, positive control 1 μg/mL lipopolysaccharide (LPS), 24 h incubation, supernatant, 540 nm. On the procedure:
Macrophage RAW264.7 is stimulated using Fomes officinalis polysaccharides prepared in Embodiments 1-3, and the concentrations of NO produced therefrom are determined, and the results are shown in Table 1. Specific experimental methods: 100 microliters (L) of RAW264.7 cells (1×10^6 cells/mL) are added to 96 microtiter plates and pre-cultured in a 37° C. 5% CO2 incubator for 24 hours (h). The supernatant is discarded, and 200 μL of 5 micrograms per milliliter (μg/mL) polysaccharide solution is added to the cells, the culture solution is used as a negative control, and 1 μg/mL lipopolysaccharide (LPS) is used as a positive control, then the cells are incubated for 24 h. To determine the NO level in the supernatant, 100 μL of supernatant is added with 100 μL of Griess reagent, and the absorbance is measured at 540 nm after 10 min of reaction at room temperature and protected from light using an enzyme labeler (Biotek instruments, Winooski, VT, USA), and the NO yield is calculated by substituting the absorbance value of the samples into the standard curve, using sodium nitrite as the standard.

On to “lipopolysaccharide [Positive control group]”, for which the NO yield is 41.06 µmol/L.
